Test results published in patent US20060063759A1, “Tricyclic steroid hormone nuclear receptor modulators” (priority 2002, published 2006).

Tests used:
human MR = target: T1, human MR (Homo sapiens, UniProt P08235); test: Mineralocorticoid Receptor Binding Assay ([3H]-aldosterone); settings: [3H]-aldosterone binding, human MR expressed in Sf9 cells; read-out: MR Ki
T1 construct: The full length human MR gene is cloned from a human kidney or human brain cDNA library; His tag from the pAcHLT vector (own knowledge); made in house; host or cells: Sf9 insect cells (baculovirus, pAcHLT transfer vector)
T1 sequence (P08235 1-984): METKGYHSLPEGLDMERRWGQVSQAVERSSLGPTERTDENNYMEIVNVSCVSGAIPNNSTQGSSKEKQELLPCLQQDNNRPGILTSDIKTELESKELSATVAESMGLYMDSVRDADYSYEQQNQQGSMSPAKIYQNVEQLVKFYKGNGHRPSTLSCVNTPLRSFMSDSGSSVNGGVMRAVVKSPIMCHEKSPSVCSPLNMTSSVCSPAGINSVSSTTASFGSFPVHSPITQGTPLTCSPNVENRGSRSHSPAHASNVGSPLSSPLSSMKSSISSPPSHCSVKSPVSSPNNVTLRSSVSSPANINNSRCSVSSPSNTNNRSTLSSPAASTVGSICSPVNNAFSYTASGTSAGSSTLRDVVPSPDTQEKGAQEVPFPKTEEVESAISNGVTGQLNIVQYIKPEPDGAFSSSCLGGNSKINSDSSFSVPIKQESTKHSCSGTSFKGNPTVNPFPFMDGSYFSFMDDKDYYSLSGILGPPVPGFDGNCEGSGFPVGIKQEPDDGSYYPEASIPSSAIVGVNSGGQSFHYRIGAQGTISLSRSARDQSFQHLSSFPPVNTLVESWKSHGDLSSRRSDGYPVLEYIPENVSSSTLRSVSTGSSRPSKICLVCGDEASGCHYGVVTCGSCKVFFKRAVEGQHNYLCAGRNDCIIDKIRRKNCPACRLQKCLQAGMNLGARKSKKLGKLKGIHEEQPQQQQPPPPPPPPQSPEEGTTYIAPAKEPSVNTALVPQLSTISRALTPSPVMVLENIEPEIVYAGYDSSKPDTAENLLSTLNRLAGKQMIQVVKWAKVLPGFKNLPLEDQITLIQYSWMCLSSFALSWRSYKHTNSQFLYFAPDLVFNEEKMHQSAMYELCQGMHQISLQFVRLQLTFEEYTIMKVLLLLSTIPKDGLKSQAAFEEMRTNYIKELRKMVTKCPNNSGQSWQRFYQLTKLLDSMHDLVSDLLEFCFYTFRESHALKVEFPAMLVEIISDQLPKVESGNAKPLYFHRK
In short: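 Lysate supernatant of Sf9 cells expressing full-length human MR (20-25 μg protein) was incubated with 0.5 nM [3H]-aldosterone and test compound in molybdate/Tris/phosphate/glycerol buffer, pH 7.5, ~16 h at 4 °C. Bound ligand was filtered and counted by scintillation; IC50 is the concentration halving [3H]-aldosterone binding.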

glucocorticoid receptor = target: T2, glucocorticoid receptor (Homo sapiens, UniProt P04150); test: Glucocorticoid Receptor Binding Assay ([3H]-dexamethasone, A549 cell extract); settings: [3H]-dexamethasone binding, read-out: GR Ki
T2 construct: containing 50-200 ug of A549 cell extract and 1.86 nM [^3H]-dexamethasone; host or cells: A549 human lung epithelial cells (sonicated cell extract)
T2 sequence (P04150 1-777): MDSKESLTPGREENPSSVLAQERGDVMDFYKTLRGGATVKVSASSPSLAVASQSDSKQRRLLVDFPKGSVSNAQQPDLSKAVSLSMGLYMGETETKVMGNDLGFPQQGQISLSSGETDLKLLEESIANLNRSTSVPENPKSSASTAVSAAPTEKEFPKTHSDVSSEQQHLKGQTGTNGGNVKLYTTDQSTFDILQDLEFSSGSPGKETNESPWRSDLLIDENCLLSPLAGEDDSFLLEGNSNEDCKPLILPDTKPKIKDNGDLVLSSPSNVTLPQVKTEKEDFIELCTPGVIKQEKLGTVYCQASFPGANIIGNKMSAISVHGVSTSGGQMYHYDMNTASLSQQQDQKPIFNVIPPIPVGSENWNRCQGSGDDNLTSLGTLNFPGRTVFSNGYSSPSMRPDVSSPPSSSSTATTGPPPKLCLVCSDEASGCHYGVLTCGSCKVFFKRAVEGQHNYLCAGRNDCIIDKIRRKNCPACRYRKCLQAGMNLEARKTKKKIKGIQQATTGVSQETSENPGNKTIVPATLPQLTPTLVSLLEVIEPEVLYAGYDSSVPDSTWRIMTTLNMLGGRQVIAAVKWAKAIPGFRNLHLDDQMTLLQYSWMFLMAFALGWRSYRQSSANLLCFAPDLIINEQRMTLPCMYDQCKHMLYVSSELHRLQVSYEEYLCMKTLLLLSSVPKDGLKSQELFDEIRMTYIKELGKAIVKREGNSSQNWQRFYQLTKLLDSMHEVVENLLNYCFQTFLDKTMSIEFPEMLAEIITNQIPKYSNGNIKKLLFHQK
In short: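 A549 cell extract (50–200 ug) incubated with 1.86 nM [3H]-dexamethasone and test compound for 16 h at 4 °C in Tris-HCl pH 7.2 buffer with glycerol and molybdate. Unbound radioligand removed by dextran-coated charcoal, then supernatant bound counts measured by scintillation.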

Structure (SMILES)	Ki (human MR) [nM]	Ki (glucocorticoid receptor) [nM]
COc1cccc2c1COc1ccccc1[C@H]2Cc1cccc(NS(C)(=O)=O)c1 [Example 733]	< 500	< 500
COc1ccc2c(c1OC)CSc1ccccc1/C2=C/c1cccc(NS(=O)(=O)c2ccccc2)c1 [Example 738]	< 500	< 500
O=S(=O)(Nc1cccc(/C=C2\c3ccccc3CSc3ccccc32)c1)c1ccccc1 [Example 739]	< 500	< 500
CCOC(=O)C(=C1c2ccccc2CCc2ccccc21)c1cccc(NS(C)(=O)=O)c1 [Example 753, (10,11-Dihydro-dibenzo[a,d]cyclohepten-5-ylidene)-(3-methanesulfonylamino-phenyl)-acetic acid ethy lester]	< 500	< 500
CS(=O)(=O)Nc1cccc(C(CO)=C2c3ccccc3CCc3ccccc32)c1 [Example 755, N-{3-[1-(10,11-Dihydro-dibenzo[a,d]cyclohepten-5-ylidene)-2-hydroxy-ethyl]-phenyl}-methanesulfonamide]	< 500	< 500
CCC(=C1c2ccccc2CCc2ccccc21)c1cccc(N)c1 [Example 760]	< 500	< 10000
CC(=C1c2ccccc2CCc2ccccc21)c1cccc(N)c1 [Example 761]	< 500	< 500
CS(=O)(=O)Nc1cccc(C(=C2c3ccccc3CCc3ccccc32)c2ccccc2)c1 [Example 762]	< 500	< 500
CCC(=C1c2ccccc2CCc2ccccc21)c1cccc(NS(C)(=O)=O)c1 [Example 763]	< 500	< 500
CC(=C1c2ccccc2CCc2ccccc21)c1cccc(NS(C)(=O)=O)c1 [Example 765]	< 500	< 500
Nc1cccc(C(=C2c3ccccc3CCc3ccccc32)c2ccc(-c3ccccc3)cc2)c1 [Example 766]	< 500	< 10000
CS(=O)(=O)Nc1cccc(C(=C2c3ccccc3CCc3ccccc32)c2ccc(-c3ccccc3)cc2)c1 [Example 767]	< 500	< 500
COc1ccc(C(=C2c3ccccc3CCc3ccccc32)c2cccc(NS(C)(=O)=O)c2)cc1 [Example 768]	< 500	< 10000
CC(=C1c2ccc(C)cc2CCc2cc(C)ccc21)c1cccc(NS(C)(=O)=O)c1 [Example 771]	< 500	< 500
CCC(=C1c2ccc(C)cc2CCc2cc(C)ccc21)c1cccc(NS(C)(=O)=O)c1 [Example 772]	< 500	< 500
CCC(=C1c2ccccc2CCc2cc(C)ccc21)c1cccc(NS(C)(=O)=O)c1 [Example 774]	< 500	< 500
CC(=C1c2ccc(F)cc2CCc2cc(F)ccc21)c1cccc(NS(C)(=O)=O)c1 [Example 775]	< 500	< 500
CCC(=C1c2ccc(F)cc2CCc2cc(F)ccc21)c1cccc(NS(C)(=O)=O)c1 [Example 776]	< 500	< 500
CC(=C1c2ccc(Cl)cc2CCc2cc(Cl)ccc21)c1cccc(NS(C)(=O)=O)c1 [Example 777]	< 500	< 500
CCC(=C1c2ccc(Cl)cc2CCc2cc(Cl)ccc21)c1cccc(NS(C)(=O)=O)c1 [Example 778]	< 500	< 500
CC/C(=C1\c2ccccc2CCc2cc(C)ccc21)c1cccc(NS(C)(=O)=O)c1 [Example 779]	< 500	< 500
CC/C(=C1/c2ccccc2CCc2cc(C)ccc21)c1cccc(NS(C)(=O)=O)c1 [Example 780]	< 500	< 500
CC(C)CC(=C1c2ccccc2CCc2ccccc21)c1cccc(NS(C)(=O)=O)c1 [Example 783]	< 500	< 500

Now from value to molecule:

Ki (human MR) [nM]	Ki (glucocorticoid receptor) [nM]	Structure (SMILES)
< 500	< 500	CS(=O)(=O)Nc1cccc(/C=C2\c3cc(Cl)ccc3COc3ccccc32)c1 [Example 727]
< 500	< 500	CS(=O)(=O)Nc1cccc(/C=C2/c3cc(Cl)ccc3COc3ccccc32)c1 [Example 728]
< 500	< 500	CS(=O)(=O)Nc1cccc(/C=C2/c3cc(F)ccc3COc3ccccc32)c1 [Example 729]
< 500	< 500	CS(=O)(=O)Nc1cccc(/C=C2\c3cc(F)ccc3COc3ccccc32)c1 [Example 730]
< 500	< 500	CS(=O)(=O)Nc1cccc(/C=C2/c3ccccc3OCc3c(F)cccc32)c1 [Example 731]
< 500	< 500	CS(=O)(=O)Nc1cccc(/C=C2\c3ccccc3OCc3c(F)cccc32)c1 [Example 732]
< 500	< 500	COc1ccc2c(c1)COc1ccccc1[C@H]2Cc1cccc(NS(C)(=O)=O)c1 [Example 734]
< 500	< 500	COc1ccc2c(c1)COc1cc(F)ccc1/C2=C\c1cccc(NS(C)(=O)=O)c1 [Example 735]
< 500	< 500	COc1ccc2c(c1)COc1cc(F)ccc1/C2=C/c1cccc(NS(C)(=O)=O)c1 [Example 736]
< 500	< 500	COc1cccc2c1[C@H](Cc1cccc(NS(C)(=O)=O)c1)c1ccccc1OC2 [Example 737]
< 500	< 500	Cc1ccc2c(c1)CSc1ccccc1C2=Cc1cccc(NS(C)(=O)=O)c1 [Example 740]
< 500	< 500	CS(=O)(=O)Nc1cccc(/C=C2/c3ccccc3CSc3cc(Cl)ccc32)c1 [Example 741]
< 500	< 500	CS(=O)(=O)Nc1cccc(/C=C2\c3ccccc3CSc3cc(Cl)ccc32)c1 [Example 742]
< 500	< 500	Cc1ccc2c(c1)CSc1ccccc1/C2=C\c1cccc(NS(C)(=O)=O)c1 [Example 743]
< 500	< 500	Cc1ccc2c(c1)CSc1ccccc1/C2=C/c1cccc(NS(C)(=O)=O)c1 [Example 744]
< 500	< 500	CS(=O)(=O)Nc1cccc(/C=C2/c3ccccc3CSc3cc(F)ccc32)c1 [Example 745]
< 500	< 500	CS(=O)(=O)Nc1cccc(/C=C2\c3ccccc3CSc3cc(F)ccc32)c1 [Example 746]
< 500	< 500	COc1ccc2c(c1)SCc1ccccc1C2=Cc1cccc(NS(C)(=O)=O)c1 [Example 747]
< 500	< 500	Cc1ccc2c(c1)SCc1ccccc1/C2=C/c1cccc(NS(C)(=O)=O)c1 [Example 748]
< 500	< 500	Cc1ccc2c(c1)SCc1ccccc1/C2=C\c1cccc(NS(C)(=O)=O)c1 [Example 749]
< 500	< 500	CC(=C1c2ccccc2CCc2cc(C)ccc21)c1cccc(NS(C)(=O)=O)c1 [Example 773]
